{"source": "patent US20220079966A1", "about": "“HYALURONAN SYNTHESIS INHIBITION FOR TREATING AUTOIMMUNE, INFLAMMATORY, FIBROTIC, OR PROLIFERATIVE DISEASES OR DISORDERS” (The Board of Trustees of the Leland Stanford Junior …, priority 2018, published 2022)", "parameters": "species or system mice", "details": "mouse, in vivo", "method": "The 4-MU (Alfa Aesar) was pressed into mouse chow (TestDiet, St. Louis, Mo.) and irradiated before shipment, as previously described (Nagy N., et al., Circulation. 2010; 122(22):2313-2322). This chow formulation delivers 250 mg/mouse/day, yielding a serum drug concentration of 640.3±17.2 nmol/L in mice, as measured by HPLC-MS. 4-MUG (ChemImpex, Wood Dale, Ill.) was distributed in the drinking water at a concentration of 2 mg/ml, delivering 10 mg/mouse/day, yielding a serum drug concentration of 357.1±72.6 ng/mL in mice, as measured by LC-MS/MS. Mice were initiated on 4-MU and 4-MUG at five, eight or twelve weeks of age, unless otherwise noted, and were maintained on this diet until they were euthanized, unless otherwise noted. For analysis of Foxp3+ regulatory T-cell numbers in naïve mice, mice were treated daily with 0.5 mg of 4-MU or 1.0 mg 4-MUG in 200 μl 0.08% carboxymethylcellulose in saline by intra-peritoneal injection.\n4-methylumbelliferone-13C4 (Toronto Research Chemicals, Ontario, Canada) was used as the internal standard (IS) for 4-MU and 7-hydroxycoumarin β-D-glucuronide (Toronto Research Chemicals, Ontario, Canada) as the IS for 4-MUG. The neat stock solutions of 4-MU and 4-MUG were mixed and diluted in 50% methanol to prepare the spiking solutions ranging from 1 ng/mL to 5000 ng/mL for each compound. […]"}
{"smiles": "Cc1cc(=O)oc2cc(O)ccc12", "note": "[4-MU, 4-methylumbelliferone]", "values": [{"measurement": "amount of 4-MUG in fat and muscle, 4-MU treatment compared to 4-MUG treatment", "result": "significantly higher amount of 4-MUG"}]}
